{
  "source": "patent US20260144266A1",
  "about": "“METHODS OF TREATING PLANT-BASED PRODUCTS TO REDUCE MICROBE PROLIFERATION AND EXTEND SHELF LIFE” (Ascribe Bioscience Inc., priority 2022, published 2026)",
  "system": "Store-bought Strawberries",
  "assay": "Strawberry shelf-life / spoilage test after ascaroside treatment",
  "settings": "berries dipped into 100 nM water solution",
  "procedure": "Example 1: treatment of fruit with ascarosides extends shelf-life/delays spoilage. Store-bought Strawberries were treated with ascaroside (ascr #18) by dipping the berries into a 100 nM water solution of the ascaroside or a mock solution lacking ascaroside. Five berries from each treatment group were placed in glass dishes and left uncovered on a table indoors at ambient temperature and monitored for one week. Fruit weight was measured at 0, 1, 3, 4, 5, 6, and 7 days post-treatment. The ascaroside treated berries retained approximately 25% more of their original mass than the untreated group indicating a reduced spoilage rate and potential for increased shelf life. […] Example 2: treatment of fruit with coating compositions containing ascarosides. Freshly harvested, non-coated, apples were obtained from a supermarket. These were washed and experimental coatings were applied.",
  "data": [
    {"compound": "CC1OC(O[C@H](C)CCCCCCCCC(=O)O)C(O)CC1O", "note": "(some centres unmarked) [ascr #18]", "values": [
      {"measurement": "fruit quality by appearance (photographs, FIG. 1b)", "setting": "photographs 0, 3 and 5 days post-treatment, vs untreated fruit", "result": "maintained higher quality than the untreated fruit"},
      {"measurement": "original mass retained, more than the untreated group (normalized fruit mass, FIG. 1a)", "setting": "uncovered at ambient temperature, monitored for seven days, vs mock solution", "result": "approximately 25%"}
    ]}
  ]
}
